We go through five molecules from patent US6949381B2, “Immortalized human skin cell lines and novel serum-free medium useful for the production thereof” (Nestec S.A., priority 1995, dated 2005).

Common to all, as to assay type: cell-based, Human
Assay [1] concerns melanocytes (DM2-NR, normal). The assay can be described thus: Induction/inhibition of melanin synthesis in melanocytes. The settings on record: T-Ag expressing melanocyte lines (especially DM2-NR), comparable to normal cells.
Description: The melanocytes were treated with the melanogensis inducers tyrosin and theophylline and the melanogenesis inhibitor kojic acid.
For assay [2], the system named is normal keratinocytes. The assay is described as follows: Keratinocyte growth in serum-free media (cell count, FIG. 1). The settings on record: serum free medium. From the text:
FIG. 1 compares the growth (in terms of cell number) of non-immortalized DKO-NR keratinocytes in three different media, i.e., NR-3, epinephrine-supplemented modified MCDB 153 and MCDB 153 after 6 days.
• 1) Characterization of Keratinocytes Growth in Serum-free Media: primary cell cultures were cultivated in modified MCDB 153 [Boyce et al., J. Tissue Cult. Meth., 9:83-93 (1985); and Pittlekow et al., J. Invest. Dermatol., 86:410-417, 1986] and NR-3 media.
FIG. 1 comprises cell growth in NR-3 and epinephrine-supplemented modified MCDB 153 (keratinocyte growth medium) after 6 days. The modified MCDB 153 medium refers to modified MCDB 153. Keratinocytes were harvested in trypsin/EDTA (0.05%/0.01%) and counted by using a hemocytometer. […] In particular, the results shown in Table 2 compare the growth of keratinocytes in coated and uncoated culture plates. 100,000 keratinocytes were seeded on 3.5 cm plates containing NR-3 medium.

Assay [3] relates to collagenase (type I). The assay is described as follows: Collagenase (type I) expression after phorbol ester treatment. The note with it: immortalized keratinocytes treated with phorbol esters.

Take `N[C@@H](Cc1ccc(O)cc1)C(=O)O` [tyrosin]: in assay [1], the induction/inhibition of melanogenesis result is given as “dose dependent”.
As for `Cn1c(=O)c2[nH]cnc2n(C)c1=O` [theophylline], the induction/inhibition of melanogenesis entry in assay [1] was “dose dependent”.
With `CNC[C@H](O)c1ccc(O)c(O)c1` [epinephrine], the “growth of normal keratinocytes” value in assay [2] is listed as “strong growth factor of normal keratinocytes”.
Regarding `O=c1cc(CO)occ1O` [kojic acid], the induction/inhibition of melanogenesis entry in assay [1] is on record as “dose dependent”.
Regarding `CCCCCCCCCCCCCC(=O)O[C@@H]1[C@@H](C)[C@@]2(O)[C@@H](C=C(CO)C[C@]3(O)C(=O)C(C)=C[C@@H]23)[C@@H]2C(C)(C)[C@]12OC(C)=O` [PMA, phorbol-12-myristate-13-acetate], in assay [3], the “collagenase (type I) expression” value is “increase of collagenase (type I) expression”.
